Experimental data: the NIST ThermoML archive (doi:10.1021/je100687x)

Assay: xn = mol fraction of the nth substance listed
Conditions: 101 kPa, Liquid; for electrical conductivity: Crison GLP 31+ conductivimeter

CCCCCCCC[n+]1ccn(C)c1.F[B-](F)(F)F [1-methyl-3-octylimidazolium tetrafluoroborate] + CCO
Conditions	electrical conductivity [S/m]	viscosity [mPa·s]
288.15 K, x2 = 0	–	686
288.15 K, x2 = 0.0891	–	428.3
288.15 K, x2 = 0.1902	–	244.7
288.15 K, x2 = 0.2927	–	141
288.15 K, x2 = 0.3914	–	73.44
288.15 K, x2 = 0.4911	–	45.24
288.15 K, x2 = 0.5938	–	26.02
288.15 K, x2 = 0.6979	–	14.53
288.15 K, x2 = 0.798	–	7.219
288.15 K, x2 = 0.9002	–	3.499
298.15 K, x2 = 0	0.069	337.4
298.15 K, x2 = 0.0891	–	224.8
298.15 K, x2 = 0.1236	0.108	–
298.15 K, x2 = 0.183	0.143	–
298.15 K, x2 = 0.1902	–	140.9
298.15 K, x2 = 0.2395	0.191	–
298.15 K, x2 = 0.2898	0.239	–
298.15 K, x2 = 0.2927	–	83.3
298.15 K, x2 = 0.3359	0.291	–
298.15 K, x2 = 0.3914	–	46.35
298.15 K, x2 = 0.4147	0.396	–
298.15 K, x2 = 0.4783	0.5	–
298.15 K, x2 = 0.4911	–	29.85
298.15 K, x2 = 0.5316	0.59	–
298.15 K, x2 = 0.5759	0.672	–
298.15 K, x2 = 0.5938	–	17.84
298.15 K, x2 = 0.6135	0.737	–
298.15 K, x2 = 0.6455	0.786	–
298.15 K, x2 = 0.6799	0.834	–
298.15 K, x2 = 0.6979	–	10.39
298.15 K, x2 = 0.7089	0.872	–
298.15 K, x2 = 0.7381	0.911	–
298.15 K, x2 = 0.7667	0.918	–
298.15 K, x2 = 0.7922	0.926	–
298.15 K, x2 = 0.798	–	5.362
298.15 K, x2 = 0.8138	0.92	–
298.15 K, x2 = 0.832	0.903	–
298.15 K, x2 = 0.8472	0.882	–
298.15 K, x2 = 0.8663	0.844	–
298.15 K, x2 = 0.8814	0.8	–
298.15 K, x2 = 0.8938	0.762	–
298.15 K, x2 = 0.9002	–	2.764
298.15 K, x2 = 0.9087	0.696	–
298.15 K, x2 = 0.9197	0.639	–
298.15 K, x2 = 0.9307	0.583	–
298.15 K, x2 = 0.9409	0.526	–
298.15 K, x2 = 0.9502	0.454	–
298.15 K, x2 = 0.9586	0.393	–
298.15 K, x2 = 0.9692	0.304	–
298.15 K, x2 = 0.9771	0.239	–
298.15 K, x2 = 0.9851	0.155	–
298.15 K, x2 = 0.9915	0.0924	–
308.15 K, x2 = 0	–	187.7
308.15 K, x2 = 0.0891	–	132.1
308.15 K, x2 = 0.1902	–	85.86
308.15 K, x2 = 0.2927	–	53.62
308.15 K, x2 = 0.3914	–	31.24
308.15 K, x2 = 0.4911	–	20.79
308.15 K, x2 = 0.5938	–	12.87
308.15 K, x2 = 0.6979	–	7.756
308.15 K, x2 = 0.798	–	4.135
308.15 K, x2 = 0.9002	–	2.206
318.15 K, x2 = 0	–	112.1
318.15 K, x2 = 0.0891	–	81.45
318.15 K, x2 = 0.1902	–	56.18
318.15 K, x2 = 0.2927	–	36.49
318.15 K, x2 = 0.3914	–	22.1
318.15 K, x2 = 0.4911	–	15.44
318.15 K, x2 = 0.5938	–	9.671
318.15 K, x2 = 0.6979	–	6.015
318.15 K, x2 = 0.798	–	3.283
318.15 K, x2 = 0.9002	–	1.802
